Experimental findings from US8048879B2, “Substituted 4,5,6,7-tetrahydro-isoxazolo[4,5-c]pyridine compounds and use thereof for producing medicaments” (Gruenenthal GmbH, priority 2005, dated 2011) are described below.

Where two headings read alike, the source gives them in different places.

Data set [1] has as its target T1, 5-HT transporter (Rattus norvegicus, UniProt P31652).
T1 construct: from tissue; host or cells: rat brain (medulla and pons), synaptosomes, P2 fraction
The experiment in a line: 5-HT uptake inhibition, synaptosomes from rat brain (medulla and pons). It counts as biochemical. In a few lines: (§1)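 Freshly isolated rat brain synaptosomes (P2 fraction): hypothalamus for NA uptake, medulla/pons for 5-HT uptake. Uptake of [3H]-NA (7.5 min) or [3H]-5-HT (5 min) at room temperature under O2, stopped by filtration over GF/B. Retained radioactivity counted by scintillation.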

The target of data set [2] is T2, NA transporter (Rattus norvegicus, UniProt Q9WTR4).
T2 construct: from tissue; host or cells: rat brain (hypothalamus), synaptosomes, P2 fraction
As to the kind of experiment: Noradrenalin (NA) uptake inhibition, synaptosomes from rat brain (hypothalamus). It counts as biochemical. Put shortly: as §1

T1 sequence (P31652 whole entry): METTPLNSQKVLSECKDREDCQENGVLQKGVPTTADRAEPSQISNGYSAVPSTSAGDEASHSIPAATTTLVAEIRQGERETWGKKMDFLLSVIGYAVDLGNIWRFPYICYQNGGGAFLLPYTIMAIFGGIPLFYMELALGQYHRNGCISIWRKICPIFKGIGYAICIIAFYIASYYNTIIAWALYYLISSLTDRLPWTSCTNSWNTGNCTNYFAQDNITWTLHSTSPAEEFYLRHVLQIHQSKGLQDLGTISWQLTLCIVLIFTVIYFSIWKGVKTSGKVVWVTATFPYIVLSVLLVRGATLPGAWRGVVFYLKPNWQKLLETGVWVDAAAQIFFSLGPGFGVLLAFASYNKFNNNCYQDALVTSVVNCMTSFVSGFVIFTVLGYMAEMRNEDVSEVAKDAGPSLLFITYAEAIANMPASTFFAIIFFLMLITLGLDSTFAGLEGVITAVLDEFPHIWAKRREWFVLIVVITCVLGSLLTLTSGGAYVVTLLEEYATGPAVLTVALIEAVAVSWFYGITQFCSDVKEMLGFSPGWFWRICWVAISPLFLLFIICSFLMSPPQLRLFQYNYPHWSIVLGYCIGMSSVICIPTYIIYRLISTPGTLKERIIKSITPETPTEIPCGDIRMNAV
T2 sequence (Q9WTR4 1-597): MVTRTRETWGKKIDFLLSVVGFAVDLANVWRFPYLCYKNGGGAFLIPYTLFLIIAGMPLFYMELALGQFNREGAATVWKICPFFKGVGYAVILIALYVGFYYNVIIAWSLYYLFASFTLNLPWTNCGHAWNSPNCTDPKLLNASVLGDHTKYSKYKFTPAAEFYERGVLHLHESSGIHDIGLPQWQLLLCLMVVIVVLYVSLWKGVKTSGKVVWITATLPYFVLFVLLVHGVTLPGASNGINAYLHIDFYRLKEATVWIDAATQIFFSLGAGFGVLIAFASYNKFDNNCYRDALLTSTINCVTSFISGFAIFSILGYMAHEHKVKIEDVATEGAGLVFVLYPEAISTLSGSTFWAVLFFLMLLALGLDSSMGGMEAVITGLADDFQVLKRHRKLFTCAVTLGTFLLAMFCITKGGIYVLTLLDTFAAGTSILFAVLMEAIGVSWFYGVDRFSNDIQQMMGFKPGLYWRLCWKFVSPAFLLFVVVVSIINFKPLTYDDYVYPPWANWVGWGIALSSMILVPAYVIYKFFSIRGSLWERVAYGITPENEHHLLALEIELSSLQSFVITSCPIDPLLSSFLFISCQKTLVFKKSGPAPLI

On to `CC(=O)c1ccc(N2CCN(C(=O)c3noc4c3CN(S(=O)(=O)c3ccc(C)cc3)CC4)CC2)cc1` [Example 86, 1-(4-{4-[5-(Toluene-4-sulfonyl)-4,5,6,7-tetrahydro-isoxazolo[4,5-c]pyridine-3-carbonyl]-piperazin-1-yl}-phenyl)-ethanone], for which the melting point was 187.8 °C. Further, the inhibition at 10 µM in data set [1] was 86%.

With `O=C(NC1CCN(Cc2ccccc2)C1)c1noc2c1CN(S(=O)(=O)c1ccc(OC(F)(F)F)cc1)CC2` (stereo not shown) [Example 117, 5-(4-trifluoromethoxy-benzenesulfonyl)-4,5,6,7-tetrahydro-isoxazolo[4,5-c]pyridine-3-carboxylic acid (1-benzyl-pyrrolidin-3-yl)-amide], the inhibition at 10 µM was 75% in data set [2] and 68% in data set [1].

`O=C(c1noc2c1CN(S(=O)(=O)c1cccc(C(F)(F)F)c1)CC2)N(CCc1ccccc1)Cc1ccccc1` [Example 68, 5-(3-trifluoromethyl-benzenesulfonyl)-4,5,6,7-tetrahydro-isoxazolo[4,5-c]pyridine-3-carboxylic acid benzyl-phenethyl amide]: the figures for the inhibition at 10 µM in data set [2] and in data set [1] were 84% and 63%, respectively.

For the compound `COCCNC(=O)c1noc2c1CN(C(=O)c1ccc(C(F)(F)F)c(F)c1)CC2` [Example 153, 5-(3-fluoro-4-(trifluoromethyl)benzoyl)-N-(2-methoxyethyl)-4,5,6,7-tetrahydroisoxazolo[4,5-c]pyridine-3-carboxamide], the values for the inhibition at 10 µM in data set [2] and in data set [1] were -12% and 37%, respectively.

In the case of `Cc1ccc(S(=O)(=O)N2CCc3onc(C(=O)NCc4ccc(S(N)(=O)=O)cc4)c3C2)cc1` [Example 157, N-(4-sulfamoylbenzyl)-5-tosyl-4,5,6,7-tetrahydroisoxazolo[4,5-c]pyridine-3-carboxamide], the inhibition at 10 µM in data set [2] is 45%. Further, the “5-HT uptake (rat), 10 μM, % inhibition” value in data set [1] (10 µM) was 15%.

As to `N#Cc1cccc(NC(=O)N2CCc3onc(C(=O)NCc4cccs4)c3C2)c1` [Example 12, 6,7-dihydro-4H-isoxazolo[4,5-c]pyridine-3,5-dicarboxylic acid 5-[(3-cyano-phenyl) amide]3-[(thiophen-2-ylmethyl) amide]], the “NA Uptake (rat), 10 μM, % inhibition” value in data set [2] came to 46%. Besides, in data set [1], the “5-HT uptake (rat), 10 μM, % inhibition” value is recorded as 51%.

Turning to `O=C(NCCN1CCCC1)c1noc2c1CN(C(=O)COc1cccc(Cl)c1)CC2` [Example 155, 5-(2-(3-chlorophenoxy)acetyl)-N-(2-(pyrrolidin-1-yl)ethyl)-4,5,6,7-tetrahydroisoxazolo[4,5-c]pyridine-3-carboxamide], the inhibition at 10 µM was 70% in data set [2] and 92% in data set [1].

Take `Cc1ccc(NC(=O)c2noc3c2CN(S(=O)(=O)c2ccc(C)cc2)CC3)cc1` [Example 152, N-p-tolyl-5-tosyl-4,5,6,7-tetrahydroisoxazolo[4,5-c]pyridine-3-carboxamide]: the inhibition at 10 µM in data set [2] was 24%; in data set [1], 29%.

In the case of `O=C(NC1CCN(Cc2ccc3ccccc3c2)C1)c1noc2c1CN(S(=O)(=O)c1ccccc1)CC2` (stereo not shown) [Example 33, 5-benzenesulfonyl-4,5,6,7-tetrahydro-isoxazolo[4,5-c]pyridine-3-carboxylic acid (1-naphthalen-2-ylmethyl-pyrrolidin-3-yl) amide], the results for the inhibition at 10 µM in data set [2] and in data set [1] were 88% and 74%, respectively.

As to `Cl.O=C(c1noc2c1CN(S(=O)(=O)c1cccc3ccccc13)CC2)N1CCC(CCN2CCCC2)CC1` [Example 149, (5-(Naphthalene-1-ylsulfonyl)-4,5,6,7-tetrahydroisoxazolo[4,5-c]pyridin-3-yl)(4-(2-(pyrrolidin-1-yl)ethyl)piperidin-1-yl)methanone hydrochloride], the inhibition at 10 µM is 54% in data set [2] and 68% in data set [1].

For `COc1ccc(NC(=O)N2CCc3onc(C(=O)NCc4ccc(S(N)(=O)=O)cc4)c3C2)cc1` [Example 154, N^5-(4-methoxyphenyl)-N^3-(4-sulfamoylbenzyl)-6,7-dihydroisoxazolo[4,5-c]pyridine-3,5(4H)-dicarboxamide], the inhibition at 10 µM was -4% in data set [2] and -8% in data set [1].
